Results reported in US4016159A, “Acylamino-cephem-carboxylic acids containing an amidino or guanidino group in the molecule” (Hoechst Aktiengesellschaft, priority 1973, dated 1977).
Converted amounts (≈) assume the structure as drawn. Like-named read-outs stand apart in the source and are kept apart here.

Key:
Assay type in all cases: cell-based
Streptococcus D = test: Minimum inhibition concentration (MIC), Table 4; conditions: Germ: Streptococcus D; for MIC: Streptococcus, read-out: Minimum inhibition concentration (MIC)
From the text: (§1) Minimum inhibition concentration (MIC) in γ/ml

[1] = test system: Staphylococcus aureus 285; test: Minimum inhibition concentration (MIC), Table 1
From the text: as §1
Germ: Staphylococcus aureus 285

Streptococcus pyogenes A = test: Minimum inhibition concentration (MIC), Table 3; conditions: Germ: Streptococcus pyogenes A; for MIC: read-out: Minimum inhibition concentration MIC
From the text: Minimum inhibition concentration MIC in γ/ml
Germ: Streptococcus pyogenes A

[2] = Staphylococcus aureus, 285, Germ: Staphylococcus aureus 285, read-out: Minimum inhibition concentration (MIC)
[3] = Staphylococcus aureus, 285, read-out: Minimum inhibition concentration (MIC)

Structure (SMILES)	MIC (Streptococcus D)	MIC [1, 2]	MIC (Streptococcus pyogenes A)	further results
Cc1nnc(SCC2=C(C(=O)O)N3C(=O)[C@@H](NC(=O)Cn4cnnn4)[C@H]3SC2)s1 [Cephazolin, reference compound]	100 µg/mL (≈ 220 µM)	–	–	–
Cn1nnnc1SCC1=C(C(=O)O)N2C(=O)C(NC(=O)Cc3ccc(C4=NCCCN4)cc3)C2SC1 (stereo not shown) [Example 87, 3-[(1-methyl-1H-tetrazole-5-yl)-thiomethyl]-7-[4-(1,4,5,6-tetrahydropyrimide-2-yl)-phenylacetamido]-Δ 3-cephem-4-carboxylic acid]	–	1.6 to 2.5 µg/mL (≈ 3.03 to 4.73 µM)	–	–
N=C(N)c1ccc(CC(=O)NC2C(=O)N3C(C(=O)O)=C(CSC4=NCCS4)CSC23)cc1 (stereo not shown) [Example 90, 3-[2-thiazoline-2-yl-thiomethyl]-7-[4-amidino-phenylacetamido]-Δ 3-cephem-4-carboxylic acid]	–	0.156 to 0.391 µg/mL (≈ 0.317 to 0.795 µM)	0.000391 to 0.0078 µg/mL (≈ 0.000795 to 0.0159 µM)	–
Cc1cc(C)nc(SCC2=C(C(=O)O)N3C(=O)C(NC(=O)Cc4ccc(C5=NCCCN5)cc4)C3SC2)n1 (stereo not shown) [Example 98]	10 to 50 µg/mL (≈ 18.1 to 90.5 µM)	0.5 to 1.25 µg/mL (≈ 0.905 to 2.26 µM)	0.000391 to 0.0078 µg/mL (≈ 0.000707 to 0.0141 µM)	–
Cc1nnc(SCC2=C(C(=O)O)N3C(=O)C(NC(=O)Cc4ccc(C(=N)N)cc4)C3SC2)s1 (stereo not shown) [Example 45, 3-[(5-methyl-1,3,4-thiadiazole-2-yl)-thiomethyl]-7-(4-amidinophenylacetamido)-Δ 3-cephem-4-carboxylic acid]	–	0.156 to 0.391 µg/mL (≈ 0.309 to 0.775 µM)	0.000391 to 0.0078 µg/mL (≈ 0.000775 to 0.0155 µM)	–
CCc1nnc(SCC2=C(C(=O)O)N3C(=O)C(NC(=O)Cc4ccc(C5=NCCCN5)cc4)C3SC2)[nH]1 (stereo not shown) [Example 95, 3-[(5-ethyl-triazole-2-yl)-thiomethyl]-7-[4-(1,4,5,6-tetrahydro-pyrimide-2-yl)-phenylacetamido]-Δ3-cephem-4-carboxylic acid]	–	–	–	Minimum inhibition concentration (MIC) ([1]; Germ: Staphylococcus aureus 285): 1.6 to 2.5 µg/mL; Minimum inhibition concentration (MIC) (Streptococcus pyogenes A): 0.008 to 0.0156 µg/mL; Minimum inhibition concentration (MIC) (Streptococcus D): 10 to 50 µg/mL
CCCc1nnc(SCC2=C(C(=O)O)N3C(=O)C(NC(=O)COc4ccc(C5=NCCN5)cc4)C3SC2)s1 (stereo not shown) [Example 37, 3-[(5-n-propyl-1,3,4-thiadiazole-2-yl)-thiomethyl]-7-[4-(imidazoline-2-yl)-phenoxyacetamido]-Δ 3-cephem-4-carboxylic acid]	0.196 to 6.25 µg/mL (≈ 0.341 to 10.9 µM)	0.5 to 1.25 µg/mL (≈ 0.87 to 2.18 µM)	0.000391 to 0.0078 µg/mL (≈ 0.00068 to 0.0136 µM)	–
Cn1nnnc1SCC1=C(C(=O)O)N2C(=O)C(NC(=O)COc3ccc(C4=NCCCN4)cc3)C2SC1 (stereo not shown) [Example 93, 3-[(1-methyl-1-H-tetrazol-5-yl)-thiomethyl]-7-[4-(1,4,5,6-tetrahydropyrimide-2-yl)-phenoxyacetamido-]-Δ3-cephem-4-carboxylic acid]	10 to 50 µg/mL (≈ 18.4 to 91.8 µM)	–	–	–
CCCc1nnc(SCC2=C(C(=O)O)N3C(=O)C(NC(=O)Cc4ccc(C5=NCCCN5)cc4)C3SC2)o1 (stereo not shown) [Example 82, 3-[(5-n-propyl-1,3,4-oxadiazole-2-yl)-thiomethyl]-7-[4-(1,4,5,6-tetrahydropyrimide-2-yl)-phenylacetamido-]-Δ 3-cephem-4-carboxylic acid]	10 to 50 µg/mL (≈ 18 to 89.8 µM)	0.5 to 1.25 µg/mL (≈ 0.898 to 2.25 µM)	0.008 to 0.0156 µg/mL (≈ 0.0144 to 0.028 µM)	–
CCCc1nnc(SCC2=C(C(=O)O)N3C(=O)C(NC(=O)Cc4ccc(C5=NCCCN5)cc4)C3SC2)s1 (stereo not shown) [Example 79, 3-[(5-n-propyl-1,3,4-thiadiazole-2-yl)-thiomethyl]-7-[4-(1,4,5,6-tetrahydropyrimide-2-yl)-phenylacetamido]-Δ 3-cephem-4-carboxylic acid]	10 to 50 µg/mL (≈ 17.5 to 87.3 µM)	0.5 to 1.25 µg/mL (≈ 0.873 to 2.18 µM)	0.008 to 0.0156 µg/mL (≈ 0.014 to 0.0272 µM)	–
Cc1nnc(SCC2=C(C(=O)O)N3C(=O)C(NC(=O)COc4ccc(C5=NCCCN5)cc4)C3SC2)o1 (stereo not shown) [Example 76, 3-[(5-methyl-1,3,4-oxadiazole-2-yl)-thiomethyl]-7-[4-(1,4,5,6-tetrahydropyrimide-2-yl)-phenoxy-acetamido]-Δ 3-cephem-4-carboxylic acid]	10 to 50 µg/mL (≈ 18.4 to 91.8 µM)	0.5 to 1.25 µg/mL (≈ 0.918 to 2.3 µM)	–	–
Cc1csc(SCC2=C(C(=O)O)N3C(=O)C(NC(=O)Cc4ccc(C5=NCCN5)cc4)C3SC2)n1 (stereo not shown) [Example 10, 3-[(4-methyl-thiazole-2-yl)-thiomethyl]-7-[4-(imidazoline-2-yl)-phenylacetamido]-Δ 3-cephem-4-carboxylic acid]	10 to 50 µg/mL (≈ 18.9 to 94.4 µM)	0.5 to 1.25 µg/mL (≈ 0.944 to 2.36 µM)	0.000391 to 0.0078 µg/mL (≈ 0.000738 to 0.0147 µM)	–
CC1(C)S[C@@H]2[C@H](NC(=O)COc3ccccc3)C(=O)N2[C@H]1C(=O)O [Penicillin-V-K, reference compound]	–	–	–	MIC [1, 3]: 125 µg/mL (≈ 357 µM)
CCCc1nnc(SCC2=C(C(=O)O)N3C(=O)C(NC(=O)COc4ccc(C(=N)N)cc4)C3SC2)o1 (stereo not shown) [Example 40, 3-[(5-n-propyl-1,3,4-oxadiazole-2-yl)-thiomethyl]-7-(4-amidinophenoxyacetamido)-Δ 3-cephem-4-carboxylic acid]	–	0.156 to 0.391 µg/mL (≈ 0.293 to 0.734 µM)	0.008 to 0.0156 µg/mL (≈ 0.015 to 0.0293 µM)	–
CCCCc1nnc(SCC2=C(C(=O)O)N3C(=O)C(NC(=O)COc4ccc(C(=N)N)cc4)C3SC2)s1 (stereo not shown) [Example 67, 3-[(5-n-butyl-1,3,4-thiadiazole-2-yl)-thiomethyl]-7-(4-amidinophenoxyacetamido)-Δ 3-cephem-4-carboxylic acid]	–	0.5 to 1.25 µg/mL (≈ 0.889 to 2.22 µM)	–	–
N=C(N)c1ccc(OCC(=O)NC2C(=O)N3C(C(=O)O)=C(CSC4=NCCS4)CSC23)cc1 (stereo not shown) [Example 30, 3-[(Δ2-thiazolidine-2-yl)-thiomethyl]-7-(4-amidinophenoxyacetamido)-Δ3-cephem-4-carboxylic acid]	10 to 50 µg/mL (≈ 19.7 to 98.5 µM)	0.5 to 1.25 µg/mL (≈ 0.985 to 2.46 µM)	0.000391 to 0.0078 µg/mL (≈ 0.00077 to 0.0154 µM)	–

Structure (SMILES)	MIC (Streptococcus D)	MIC [1, 2]	MIC (Streptococcus pyogenes A)	further results
O=C(Cc1ccc(C2=NCCCN2)cc1)NC1C(=O)N2C(C(=O)O)=C(CSC3=NNC(c4ccccc4)=CS3)CSC12 (stereo not shown) [Example 99, 3-[(5-phenyl-4H-1,3,4-thiadiazine-2-yl)-thiomethyl]-7[4-(1,4,5,6-tetrahydropyrimide-2-yl)-phenylacetamido]-Δ3-cephem-4-carboxylic acid]	10 to 50 µg/mL (≈ 16.1 to 80.5 µM)	0.5 to 1.25 µg/mL (≈ 0.805 to 2.01 µM)	0.008 to 0.0156 µg/mL (≈ 0.0129 to 0.0251 µM)	–
Cc1csc(SCC2=C(C(=O)O)N3C(=O)C(NC(=O)Cc4ccc(C5=NCCCN5)cc4)C3SC2)n1 (stereo not shown) [Example 15, 3-[(4-methyl-thiazole-2-yl)-thiomethyl]-7-[4-(1,4,5,6-tetrahydropyrimide-2-yl)-phenylacetamido]-Δ 3-cephem-4-carboxylic acid]	10 to 50 µg/mL (≈ 18.4 to 92 µM)	1.6 to 2.5 µg/mL (≈ 2.94 to 4.6 µM)	–	–
CCCCc1nnc(SCC2=C(C(=O)O)N3C(=O)C(NC(=O)COc4ccc(C(=N)N)cc4)C3SC2)o1 (stereo not shown) [Example 66, 3-[(5-n-butyl-1,3,4-oxadiazole-2-yl)-thiomethyl]-7-(4-amidinophenoxyacetamido)-Δ 3-cephem-4-carboxylic acid]	–	0.5 to 1.25 µg/mL (≈ 0.915 to 2.29 µM)	0.008 to 0.0156 µg/mL (≈ 0.0146 to 0.0285 µM)	–
COc1cc(C(=N)N)ccc1OCC(=O)NC1C(=O)N2C(C(=O)O)=C(CSc3nccs3)CSC12 (stereo not shown) [Example 129, 3-[(1,3-thiazole-2-yl)thiomethyl]-7-(4-amidino-2-methoxy-phenoxyacetamido)-Δ3-cephem-4-carboxylic acid]	–	0.156 to 0.391 µg/mL (≈ 0.291 to 0.73 µM)	0.008 to 0.0156 µg/mL (≈ 0.0149 to 0.0291 µM)	–
Cc1csc(SCC2=C(C(=O)O)N3C(=O)C(NC(=O)Cc4ccc(NC(=N)N)cc4)C3SC2)n1 (stereo not shown) [Example 7]	10 to 50 µg/mL (≈ 19.3 to 96.4 µM)	0.5 to 1.25 µg/mL (≈ 0.964 to 2.41 µM)	–	–
Cc1n[nH]c(SCC2=C(C(=O)O)N3C(=O)C(NC(=O)Cc4ccc(C5=NCCCN5)cc4)C3SC2)n1 (stereo not shown) [Example 17, 3-[(methyl-1,2,4,-triazole-3-yl)-thiomethyl]-7-[4-(1,4,5,6-tetrahydropyrimide-2-yl)-phenylacetamido]-Δ 3-cephem-4-carboxylic acid]	10 to 50 µg/mL (≈ 19 to 94.8 µM)	1.6 to 2.5 µg/mL (≈ 3.03 to 4.74 µM)	–	–
N=C(N)c1ccc(OCC(=O)NC2C(=O)N3C(C(=O)O)=C(CSc4nnc(-c5ccccc5)o4)CSC23)cc1 (stereo not shown) [Example 48, 3-[(5-phenyl-1,3,4-oxadiazole-2-yl)-thiomethyl]-7-(4-amidinophenoxyacetamido)-Δ 3-cephem-4-carboxylic acid]	–	0.156 to 0.391 µg/mL (≈ 0.275 to 0.69 µM)	–	Minimum inhibition concentration (MIC) (Streptococcus D): 0.196 to 6.25 µg/mL
COc1cc(C(=N)N)ccc1OCC(=O)NC1C(=O)N2C(C(=O)O)=C(CSc3nc(C)cs3)CSC12 (stereo not shown) [Example 130, 3-[(4-methyl-1,3-thiazole-2-yl)-thiomethyl]-7-(4-amidino-2-methoxy-phenoxyacetamido)-Δ3-cephem-4-carboxylic acid]	–	0.156 to 0.391 µg/mL (≈ 0.284 to 0.711 µM)	0.008 to 0.0156 µg/mL (≈ 0.0146 to 0.0284 µM)	–
Cc1nnc(SCC2=C(C(=O)O)N3C(=O)C(NC(=O)COc4ccc(C5=NCCN5)cc4)C3SC2)o1 (stereo not shown) [Example 74, 3-[(5-methyl-1,3,4-oxadiazole-2-yl)-thiomethyl]-7-[4-(imidazoline-2-yl)-phenoxyacetamido]-Δ 3-cephem-4-carboxylic acid]	–	0.5 to 1.25 µg/mL (≈ 0.942 to 2.36 µM)	0.008 to 0.0156 µg/mL (≈ 0.0151 to 0.0294 µM)	–
Cc1nnc(SCC2=C(C(=O)O)N3C(=O)C(NC(=O)Cc4ccc(C5=NCCCN5)cc4)C3SC2)o1 (stereo not shown) [Example 78, 3-[(5-methyl-1,3,4-oxadiazole-2-yl)-thiomethyl]-[4-(1,4,5,6-tetrahydropyrimide-2-yl)-phenylacetamido]-Δ 3-cephem-4-carboxylic acid]	–	0.5 to 1.25 µg/mL (≈ 0.946 to 2.36 µM)	0.008 to 0.0156 µg/mL (≈ 0.0151 to 0.0295 µM)	–
CC1(C)S[C@@H]2[C@H](NC(=O)[C@H](N)c3ccccc3)C(=O)N2[C@H]1C(=O)O [Ampicillin, reference compound]	–	100 µg/mL (≈ 286 µM)	–	–
CC1(C)S[C@@H]2[C@H](NC(=O)Cc3ccccc3)C(=O)N2[C@H]1C(=O)O [Penicillin-G-Na, reference compound]	–	–	–	MIC [1, 3]: 125 µg/mL (≈ 374 µM)
CCc1nnc(SCC2=C(C(=O)O)N3C(=O)C(NC(=O)Cc4ccc(C5=NCCCN5)cc4)C3SC2)n1N (stereo not shown) [Example 104, 3-[(4-amino-5-ethyl-1,2,4-triazole-3-yl)-thiomethyl]-7-[4-(1,4,5,6-tetrahydropyrimide-2-yl)-phenylacetamido-] -Δ3-cephem-4-carboxylic acid]	–	1.6 to 2.5 µg/mL (≈ 2.87 to 4.49 µM)	–	–
CCCCc1nnc(SCC2=C(C(=O)O)N3C(=O)C(NC(=O)Cc4ccc(C5=NCCCN5)cc4)C3SC2)s1 (stereo not shown) [Example 77, 3-[(5-n-butyl-1,3,4-thiadiazole-2-yl)-thiomethyl]-7-[4-(1,4,5,6-tetrahydropyrimide-2-yl)-phenylacetamido]-Δ 3-cephem-4-carboxylic acid]	–	0.5 to 1.25 µg/mL (≈ 0.852 to 2.13 µM)	0.008 to 0.0156 µg/mL (≈ 0.0136 to 0.0266 µM)	–
Cn1ccnc1SCC1=C(C(=O)O)N2C(=O)C(NC(=O)Cc3ccc(C4=NCCN4)cc3)C2SC1 (stereo not shown) [Example 123, 3-[(1-methylimidazole-2-yl)-thiomethyl]-7-[4-(imidazoline-2-yl)-phenylacetamido]-Δ 3-cephem-4-carboxylic acid]	–	1.6 to 2.5 µg/mL (≈ 3.12 to 4.88 µM)	–	–
